In the supplement of paper PMC11208160:

Assay: recombinant barcode read abundance after kanamycin selection (control-corrected) (log10(CPM+1)); higher = more efficient recombination; sequences stand for … in AGTGCAGAGAAAATCGGCCAGTTTTCTCTGCCTGCAGTCCGCATGCCGT…AGATTTATGCAGCGGACTGCCTTTCTCCCAAAGTGATAAACCGGACAGTATCATGGACCGGTTTTCCCGGTAATCCGTATTTGCAAGGTTGGTTTCACT; site = the 11-nt target
How it was run: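 A promoter, a target, a barcode and the first 104 bridge RNA bases under J23119 made up each oligo. Oligos were Gibson-cloned into a vector bearing the other 73 bp and a T7-inducible recombinase, then co-electroporated into E. coli with a donor plasmid and plated in duplicate on chloramphenicol/ampicillin LB agar (control) or chloramphenicol/ampicillin/kanamycin with 0.1 mM IPTG. Recombination efficiency is the averaged, control-corrected counts per million of recombinant-junction barcodes. Reported values are log10(CPM+1).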
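Note: IS621 recombinase and bridge RNA in Escherichia coli cells.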

Row | Sequence | recombinant barcode read abundance (log10)
1 | CTAAGCTCTTGGGTTCTAACCTGTTGCTC (site CTAAGCTCTGA) | 1.03
2 | CTAAGCTCTTGGGTTCTAACCTGTTGCTC (site CTAAGCTCTTA) | 0.119
3 | CTAAGGTCTTGGGTTCTAACCTGTTGCCT (site CTAAGGTCTAA) | 0.745
4 | CTAAGGTCTTGGGTTCTAACCTGTTGCCT (site CTAAGGTCTAC) | 0.122
5 | CTAAGGTCTTGGGTTCTAACCTGTTGCCT (site CTAAGGTCTAG) | 0.923
6 | CTAAGGTCTTGGGTTCTAACCTGTTGCCT (site CTAAGGTCTAT) | 0.222
7 | CTAATACCTTGGGTTCTAACCTGTTGCGT (site CTAATACCTAC) | 1.04
8 | CTAATACCTTGGGTTCTAACCTGTTGCGT (site CTCATACCTAC) | 0.0518
9 | CTAATGTCTTGGGTTCTAACCTGTTGCCT (site CTAATGTCTAG) | 1.65
10 | CTAATGTCTTGGGTTCTAACCTGTTGCCT (site CTAATGTCTTG) | 0.0145
11 | CTAATTGCTTGGGTTCTAACCTGTTGCAA (site CTAATTGCTTT) | 0.0868
12 | CTAATTGCTTGGGTTCTAACCTGTTGCAA (site CTACTTGCTTT) | 0.0139
13 | CTAATTGCTTGGGTTCTAACCTGTTGCAA (site CTAGTTGCTTT) | 0.344
14 | CTAATTGCTTGGGTTCTAACCTGTTGCAA (site CTATTTGCTTT) | 0.0237
15 | CTACAATCTTGGGTTCTAACCTGTTGCAT (site CTACAATCTAA) | 0.192
16 | CTACAATCTTGGGTTCTAACCTGTTGCAT (site CTACAATCTAT) | 1.51

Row | Sequence | recombinant barcode read abundance (log10)
17 | CTACAATCTTGGGTTCTAACCTGTTGCTT (site CTACAATCTAA) | 1.17
18 | CTACAATCTTGGGTTCTAACCTGTTGCTT (site CTACAATCTAT) | 0.816
19 | CTACACCCTTGGGTTCTAACCTGTTGCTT (site CTACAACCTAA) | 0.0455
20 | CTACACCCTTGGGTTCTAACCTGTTGCTT (site CTACACCCTAA) | 1.39
21 | CTACACCCTTGGGTTCTAACCTGTTGCTT (site CTACAGCCTAA) | 0.296
22 | CTACACCCTTGGGTTCTAACCTGTTGCTT (site CTACATCCTAA) | 0.22
23 | CTACAGGCTTGGGTTCTAACCTGTTGCAC (site CTACAGGCTGT) | 1
24 | CTACAGGCTTGGGTTCTAACCTGTTGCAC (site GAGTCTTCTTG) | 0.165
25 | CTACCACCTTGGGTTCTAACCTGTTGCCT (site CTACCAACTAG) | 0.16
26 | CTACCACCTTGGGTTCTAACCTGTTGCCT (site CTACCACCTAG) | 1.8
27 | CTACCACCTTGGGTTCTAACCTGTTGCCT (site CTACCAGCTAG) | 0.0722
28 | CTACCACCTTGGGTTCTAACCTGTTGCCT (site CTACCATCTAG) | 0.214
29 | CTACCATCTTGGGTTCTAACCTGTTGCCT (site CTACCAACTAG) | 0.0518
30 | CTACCATCTTGGGTTCTAACCTGTTGCCT (site CTACCACCTAG) | 0.0894
31 | CTACCATCTTGGGTTCTAACCTGTTGCCT (site CTACCAGCTAG) | 0.278
32 | CTACCATCTTGGGTTCTAACCTGTTGCCT (site CTACCATCTAG) | 0.948
